Test results from patent publication US7566553B2, “Microorganism of Escherichia Sp, or Corynebacterium Sp, comprising foreign NADP dependent glyceraldehyde-3-phosphate dehydrogenase gene and method for producing L-lysine using the same” (CJ Corporation, priority 2004, dated 2009).

Key:
Test in all cases: Resistance against lysine analogue AEC, relative growth rate in M9 minimum medium
Type in all cases: cell-based, Escherichia coli
E. coli strain CJ40225 = conditions: absorbance at 562 nm, relative to growth at zero AEC
Method: (§1) An Escherichia coli strain TF1 (Korean laid-open Patent No. 1992-0012444) was grown until the strain entered an exponential growth phase and suspended in a 0.1M phosphate buffer (pH 7.0) or 0.1M citrate buffer solution (pH 5.5). N-methyl-N′-nitro-nitrosoguanidine was added into the suspension to a final concentration of 200-500 μg/mL, reacted at 30° C. for 10-30 minutes, and inoculated into a minimum agar plate containing 1-30 g/L of a lysine analogue (AEC: S-(2-aminoethyl)-L-cysteine) to select an analogue-resistant strain. This strain was named “CJ40225”. The resistance of the strain against the lysine analogue was tested using an M9 minimum medium, and the relative growth rate was measured.
(§2) The used M9 minimum medium contained 4 g of glucose, 12.8 g of Na2HPO4.7H2O, 3 g of KH2PO4, 0.5 g of NaCl, and 1 g of NH4Cl per 1 liter of water.

E. coli strain TF1 = conditions: strain TE1 (so in the source), absorbance at 562 nm, relative to growth at zero AEC
Method: as §1, §2

[1] = system: Wild type E. coli strain W3110; conditions: absorbance at 562 nm, relative to growth at zero AEC
Method: as §1, §2

NCCSC[C@H](N)C(=O)O [AEC, S-(2-aminoethyl)-L-cysteine]
Relative Growth Rate (%) (E. coli strain CJ40225; added AEC 5 g/L): 124.3% | Relative Growth Rate (%) (E. coli strain CJ40225; added AEC 10 g/L): 88.4% | Relative Growth Rate (%) (E. coli strain CJ40225; added AEC 20 g/L): 89.2% | Relative Growth Rate (%) (E. coli strain CJ40225; added AEC 40 g/L): 73.9% | Relative Growth Rate (%) (E. coli strain TF1; added AEC 5 g/L): 103.5% | Relative Growth Rate (%) (E. coli strain TF1; added AEC 10 g/L): 128.9% | Relative Growth Rate (%) (E. coli strain TF1; added AEC 20 g/L): 112.5% | Relative Growth Rate (%) (E. coli strain TF1; added AEC 40 g/L): 17.5% | Relative Growth Rate (%) ([1]; added AEC 5 g/L): 66.3% | Relative Growth Rate (%) ([1]; added AEC 10 g/L): 39.8% | Relative Growth Rate (%) ([1]; added AEC 20 g/L): 7.4%
